Source: US20100298141A1, “SUBSTITUTED PYRIDINE N-OXIDE HERBICIDES” (E. I. DU PONT DE NEMOURS AND COMPANY, priority 2007, published 2010)

How the values were obtained:
barnyardgrass = experiment: Test A pre-/postemergence greenhouse test; type: in vivo, Echinochloa crus-galli; details: for Barnyardgrass plant response rating: 0 to 100 scale
Outline: (§1)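 Seeds sown in a loam soil–sand blend got a preemergence directed soil spray of compound in a non-phytotoxic solvent mixture containing surfactant. Postemergence sprays of the same formulation went at the same time onto plants 2–10 cm tall at the one- to two-leaf stage. Injury was scored visually against untreated controls after about ten days in the greenhouse.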

redroot pigweed = experiment: Test A pre-/postemergence greenhouse test; type: in vivo, Amaranthus retroflexus; details: for Pigweed plant response rating: 0 to 100 scale
Outline: as §1

velvetleaf = experiment: Test A pre-/postemergence greenhouse test; type: in vivo, Abutilon theophrasti; details: for Velvetleaf plant response rating: 0 to 100 scale
Outline: as §1

downy brome = experiment: Test C pre-/postemergence test; type: in vivo, Bromus tectorum; details: for Plant response rating, Bromegrass, Downy: scale 0 to 100, 0 no effect, 100 complete control
Outline: (§2)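 Seeds were planted and treated preemergence with test chemical in a non-phytotoxic solvent mixture containing surfactant. Postemergence applications of the same formulation went onto plants 2 to 18 cm tall (1- to 4-leaf stage). A dash marks no test result.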

green foxtail = experiment: Test C pre-/postemergence test; type: in vivo, Setaria viridis; details: for Plant response rating, Foxtail, Green: scale 0 to 100, 0 no effect, 100 complete control
Outline: as §2

wild oat = experiment: Test C pre-/postemergence test; type: in vivo, Avena fatua; details: for Plant response rating, Oat, Wild: scale 0 to 100, 0 no effect, 100 complete control
Outline: as §2

Surinam grass = experiment: Test C pre-/postemergence test; type: in vivo, Brachiaria decumbens; details: for Surinam Grass plant response rating: preemergence, scale 0 (no effect) to 100 (complete control); for Plant response rating, Surinam Grass: scale 0 to 100, 0 no effect, 100 complete control
Outline: as §2

cocklebur = experiment: Test C pre-/postemergence test; type: in vivo, Xanthium strumarium; details: for Plant response rating, Cocklebur: scale 0 to 100, 0 no effect, 100 complete control
Outline: as §2

crabgrass = experiment: Test C pre-/postemergence test; type: in vivo, Digitaria sanguinalis
Outline: as §2

[1] = Postemergence, 125 g ai/ha, 0 is no effect, 100 is complete control
[2] = Postemergence, 500 g ai/ha, 0 is no effect, 100 is complete control
[3] = Preemergence, 125 g ai/ha, 0 no effect, 100 complete control
[4] = Preemergence, 500 g ai/ha, 0 to 100 scale where 0 is no effect and 100 is complete control
[5] = 31 g ai/ha, Preemergence, scale 0 to 100
[6] = 62 g ai/ha, preemergence, scale 0 (no effect) to 100 (complete control)
[7] = preemergence, 125 g ai/ha, scale 0 (no effect) to 100 (complete control)

## CC(c1c(C(F)(F)F)nn(C)c1OC(F)F)S(=O)(=O)c1cccc[n+]1[O-] (stereo not shown) [Compound 5]
barnyardgrass; [1]
  Barnyardgrass plant response rating: 80
barnyardgrass; [2]
  Barnyardgrass plant response rating: 80
barnyardgrass; [3]
  Barnyardgrass plant response rating: 70
barnyardgrass; [4]
  Plant response rating, Barnyardgrass: 90
Redroot pigweed; [1]
  Pigweed plant response rating: 60
Redroot pigweed; [2]
  Pigweed plant response rating: 80
Redroot pigweed; [3]
  Pigweed plant response rating: 100
Redroot pigweed; [4]
  Plant response rating, Pigweed: 100
velvetleaf; [1]
  Velvetleaf plant response rating: 60
velvetleaf; [2]
  Velvetleaf plant response rating: 80
velvetleaf; [3]
  Velvetleaf plant response rating: 90
velvetleaf; [4]
  Plant response rating, Velvetleaf: 90
Downy brome; [5]
  Bromegrass, Downy plant response rating: 0
Downy brome; [6]
  Bromegrass, Downy plant response rating: 20
Downy brome; Postemergence, 31 g ai/ha
  Plant response rating (0 to 100), Bromegrass, Downy: 0
Downy brome; Postemergence, 62 g ai/ha
  Plant response rating, Bromegrass, Downy: 0
Downy brome; Postemergence, 125 g ai/ha
  Plant response rating, Bromegrass, Downy: 0
Downy brome; Postemergence, 250 g ai/ha
  Plant response rating, Bromegrass, Downy: 0
Downy brome; Preemergence, 250 g ai/ha
  Plant response rating (0 to 100), Bromegrass, Downy: 60
Downy brome; [7]
  Bromegrass, Downy plant response rating: 25
Green foxtail; [5]
  Foxtail, Green plant response rating: 100
Green foxtail; [6]
  Foxtail, Green plant response rating: 100
Green foxtail; Postemergence, 31 g ai/ha
  Plant response rating (0 to 100), Foxtail, Green: 0
Green foxtail; Postemergence, 62 g ai/ha
  Plant response rating, Foxtail, Green: 0
Green foxtail; Postemergence, 125 g ai/ha
  Plant response rating, Foxtail, Green: 60
Green foxtail; Postemergence, 250 g ai/ha
  Plant response rating, Foxtail, Green: 65
Green foxtail; Preemergence, 250 g ai/ha
  Plant response rating (0 to 100), Foxtail, Green: 100
Green foxtail; [7]
  Foxtail, Green plant response rating: 100
Wild oat; [5]
  Oat, Wild plant response rating: 20
Wild oat; [6]
  Oat, Wild plant response rating: 60
Wild oat; Postemergence, 31 g ai/ha
  Plant response rating (0 to 100), Oat, Wild: 0
Wild oat; Postemergence, 62 g ai/ha
  Plant response rating, Oat, Wild: 0
Wild oat; Postemergence, 125 g ai/ha
  Plant response rating, Oat, Wild: 0
Wild oat; Postemergence, 250 g ai/ha
  Plant response rating, Oat, Wild: 30
Wild oat; Preemergence, 250 g ai/ha
  Plant response rating (0 to 100), Oat, Wild: 75
Wild oat; [7]
  Oat, Wild plant response rating: 70
Surinam grass; 62 g ai/ha
  Surinam Grass plant response rating: 70
Surinam grass; Postemergence, 31 g ai/ha
  Plant response rating (0 to 100), Surinam Grass: 30
Surinam grass; Postemergence, 62 g ai/ha
  Plant response rating (0 to 100), Surinam Grass: 55
Surinam grass; Postemergence, 125 g ai/ha
  Plant response rating, Surinam Grass: 60
Surinam grass; Postemergence, 250 g ai/ha
  Plant response rating, Surinam Grass: 100
Surinam grass; Preemergence, 250 g ai/ha
  Plant response rating (0 to 100), Surinam Grass: 95
Surinam grass; 125 g ai/ha
  Surinam Grass plant response rating: 70
cocklebur; [5]
  Cocklebur plant response rating: 0
cocklebur; [6]
  Cocklebur plant response rating: 0
cocklebur; Postemergence, 31 g ai/ha
  Plant response rating (0 to 100), Cocklebur: 0
cocklebur; Postemergence, 62 g ai/ha
  Plant response rating, Cocklebur: 0
cocklebur; Postemergence, 125 g ai/ha
  Plant response rating, Cocklebur: 0
cocklebur; Postemergence, 250 g ai/ha
  Plant response rating, Cocklebur: 10
cocklebur; Preemergence, 250 g ai/ha
  Plant response rating (0 to 100), Cocklebur: 0
cocklebur; [7]
  Cocklebur plant response rating: 0
crabgrass; [5]
  Crabgrass, Large plant response rating: 98
crabgrass; [6]
  Crabgrass, Large plant response rating: 100
crabgrass; Postemergence, 31 g ai/ha
  Plant response rating (0 to 100), Crabgrass, Large: 5
crabgrass; Postemergence, 62 g ai/ha, scale 0 to 100, 0 no effect, 100 complete control
  Plant response rating, Crabgrass, Large: 20
